This note sets out measurements from patent publication US20150004134A1, “TREATMENT OF CANCER WITH HETEROCYCLIC INHIBITORS OF GLUTAMINASE” (Calithera Biosciences, Inc., priority 2012, published 2015).

Molecules are shown by their SMILES. Where only a bound is given, the exact number is not on record here.

For the assay, the system named is P493-6 (myc "on") cells. Kind of assay: Cell Proliferation Assay. Type of assay: cell-based. The settings on record: P493-6, 72 h, read-out: Cell prolif P493 72 h IC50, P493 cells, 72 h. The method, then:
P493-6 (myc “on”) cells were maintained in growth media (RPMI-1640, 10% FBS, 2 mM glutamine, 100 units/ml Penicillin and 100 μg/ml streptomycin) at 37° C. with 5% CO2. For compound assay, P493-6 cells were plated in 96-well V-bottom plates on the day of compound addition in 50 μl of growth media at a cell density of 200,000 cells/ml (10,000 cells/well). Compounds were serially diluted in 100% DMSO at 200-times the final concentration. Compounds were diluted 100-fold into growth media and then 50 μl of this mixture was added to cell plates making the final concentration of DMSO 0.5%. Cells were incubated with compound for 72 hrs at 37° C. with 5% CO2 and analyzed for antiproliferative effects either by Cell Titer Glo (Promega) or FACS analysis using the Viacount (Millipore) kit on the Guava instrument.
Turning to `CC[C@](O)(C(=O)Nc1nnc(CCCCc2nnc(NC(=O)[C@@](O)(CC)c3ccccc3)s2)s1)c1ccccc1` [Compound 143], the IC50 is 2.2 µM.
In the case of `O=C(Nc1nnc(CCCCc2nnc(NC(=O)[C@@H](O)Cc3ccccc3)s2)s1)[C@@H](O)Cc1ccccc1` [Compound 146], the IC50 turned out to be 0.46 µM.
The same measure for `CO[C@@H](C(=O)Nc1nnc(CCCCc2nnc(NC(=O)[C@H](OC)c3ccccc3)s2)s1)c1ccccc1` [Compound 147]: 0.37 µM; for `CO[C@H](C(=O)Nc1nnc(CCCCc2nnc(NC(=O)[C@@H](OC)c3ccccc3)s2)s1)c1ccccc1` [Compound 148]: 0.39 µM.
Under `CC(CO)(CO)C(=O)Nc1nnc(CCCCc2nnc(NC(=O)C(C)(CO)CO)s2)s1` [Compound 151] stands > 50 µM; under `CC(CO)(CO)C(=O)Nc1nnc(CCCCc2nnc(NC(=O)Cc3cccc(F)c3)s2)s1` [Compound 152, N,N′-(5-(4-(5-(2-(3-fluorophenyl)acetamido)-1,3,4-thiadiazol-2-yl)butyl)-1,3,4-thiadiazol-2-yl)-3-hydroxy-2-(hydroxymethyl)-2-methylpropanamide], 1.1 µM.
Take `O=C(C[C@@H](O)C(=O)O)Nc1nnc(CCCCc2nnc(NC(=O)C[C@@H](O)C(=O)O)s2)s1` [Compound 154]: the concentration for half-maximal inhibition (IC50) is > 50 µM.
`N#Cc1cccc(CC(=O)Nc2nnc(CCSCCc3nnc(NC(=O)Cc4cccc(C#N)c4)s3)s2)c1` [Compound 155]: the IC50 was 1.9 µM.
For the molecule `COc1cccc(CC(=O)Nc2nnc(CCSCCc3nnc(NC(=O)Cc4cccc(OC)c4)s3)s2)c1` [Compound 156], the IC50 came out at 0.63 µM.
In the case of `COc1ccc(CC(=O)Nc2nnc(CCSCCc3nnc(NC(=O)Cc4ccc(OC)c(OC)c4)s3)s2)cc1OC` [Compound 157], the IC50 was 0.18 µM.
For `CS(=O)(=O)c1cccc(CC(=O)Nc2nnc(CCSCCc3nnc(NC(=O)Cc4cccc(S(C)(=O)=O)c4)s3)s2)c1` [Compound 158], the IC50 stood at 8.1 µM.
The same measure for `COc1ccc(CC(=O)Nc2nnc(CCCCc3nnc(NC(=O)Cc4ccc(OC)c(OC)c4)s3)s2)cc1OC` [Compound 160]: > 50 µM; for `COc1ccc(CC(=O)Nc2nnc(CCSCCc3nnc(NC(=O)Cc4ccc(OC)cc4)s3)s2)cc1` [Compound 161]: 1.4 µM.
Take `CN(C)c1ccc(CC(=O)Nc2nnc(CCSCCc3nnc(NC(=O)Cc4ccc(N(C)C)cc4)s3)s2)cc1` [Compound 162]: the IC50 turned out to be 0.15 µM.
As to `CN(C)c1ccc(CC(=O)Nc2nnc(CCCCc3nnc(NC(=O)Cc4ccc(N(C)C)cc4)s3)s2)cc1` [Compound 164], the IC50 was 0.13 µM.
For the molecule `COCC(C(=O)Nc1nnc(CCCCc2nnc(NC(=O)C(COC)c3ccccc3)s2)s1)c1ccccc1` (centres unmarked) [Compound 165], the IC50 was found to be 33 µM.
`O=C(Nc1nnc(CCCCc2nnc(NC(=O)C3(c4ccccc4)CCOCC3)s2)s1)C1(c2ccccc2)CCOCC1` [Compound 166]: the IC50 worked out at 6.8 µM.
Consider `O=C(Nc1nnc(CCCCc2nnc(NC(=O)C3(c4cccs4)CCOCC3)s2)s1)C1(c2cccs2)CCOCC1` [Compound 167], for which the IC50 is 34 µM.
The same measure for `O=C(Nc1nnc(CCCCc2nnc(NC(=O)C3(c4ccccc4)CC3)s2)s1)C1(c2ccccc2)CC1` [Compound 168]: > 50 µM; for `O=C(Nc1nnc(CCCCc2nnc(NC(=O)[C@H](O)Cc3ccccc3)s2)s1)[C@H](O)Cc1ccccc1` [Compound 169]: 3.4 µM; for `O=C(Nc1nnc(CCCc2nnc(NC(=O)C(O)Cc3ccccc3)s2)s1)C(O)Cc1ccccc1` (centres unmarked) [Compound 170]: 9.3 µM.
On to `O=C(Nc1nnc(CCCc2nnc(NC(=O)C(O)c3ccccc3)s2)s1)C(O)c1ccccc1` (centres unmarked) [Compound 172], for which the IC50 worked out at 3.7 µM.
`CC(=O)OC(C(=O)Nc1nnc(CCCCc2nnc(NC(=O)C(OC(C)=O)c3ccccc3)s2)s1)c1ccccc1` (centres unmarked) [Compound 173]: the IC50 came to 0.76 µM.
Take `O=C(Nc1nnc(CCCCc2nnc(NC(=O)C(O)c3ccccc3)s2)s1)C(O)c1ccccc1` (centres unmarked) [Compound 174]: the half-inhibitory concentration (IC50) worked out at 0.44 µM.
The same measure for `N[C@H](C(=O)Nc1nnc(CCSCCc2nnc(NC(=O)[C@@H](N)c3ccccc3)s2)s1)c1ccccc1` [Compound 175]: 23 µM.
As for `O=C(Nc1nnc(CCCc2nnc(NC(=O)C(CO)c3ccccc3)s2)s1)C(CO)c1ccccc1` (centres unmarked) [Compound 176], the 50% inhibitory concentration (IC50) is 1.5 µM.
Regarding `O=C(CC(C(=O)O)c1ccccc1)Nc1nnc(CCCCc2nnc(NC(=O)CC(C(=O)O)c3ccccc3)s2)s1` (centres unmarked) [Compound 177], the IC50 is > 50 µM.
As for `COC(=O)C(CC(=O)Nc1nnc(CCCCc2nnc(NC(=O)CC(C(=O)O)c3ccccc3)s2)s1)c1ccccc1` (centres unmarked) [Compound 178], the IC50 is > 50 µM.
`O=C(CCC(C(=O)O)c1ccccc1)Nc1nnc(CCSCCc2nnc(NC(=O)CCC(C(=O)O)c3ccccc3)s2)s1` (centres unmarked) [Compound 179]: the IC50 was > 50 µM.
As to `O=C(Nc1nnc(CCSCCc2nnc(NC(=O)c3ccccc3CO)s2)s1)c1ccccc1CO` [Compound 180], the IC50 is > 50 µM.
Turning to `O=C(Cc1ccccc1CO)Nc1nnc(CCSCCc2nnc(NC(=O)Cc3ccccc3CO)s2)s1` [Compound 181, N,N′-(5,5′-(thiobis(ethane-2,1-diyl))bis(1,3,4-thiadiazole-5,2-diyl))bis(2-(2-(hydroxymethyl)phenyl)acetamide)], the IC50 came to 30 µM.
Consider `CS(=O)(=O)c1ccc(CC(=O)Nc2nnc(CCSCCc3nnc(NC(=O)Cc4ccc(S(C)(=O)=O)cc4)s3)s2)cc1` [Compound 182], for which the IC50 is > 50 µM.
In the case of `CC(C)(C)OC(=O)Nc1ccc(CC(=O)Nc2nnc(CCSCCc3nnc(NC(=O)Cc4ccc(NC(=O)OC(C)(C)C)cc4)s3)s2)cc1` [Compound 185], the IC50 amounted to 0.09 µM.
Under `N[C@@H](C(=O)Nc1nnc(CCCCc2nnc(NC(=O)[C@H](N)c3ccccc3)s2)s1)c1ccccc1` [Compound 186] stands 13 µM; under `N[C@H](C(=O)Nc1nnc(CCCCc2nnc(NC(=O)[C@@H](N)c3ccccc3)s2)s1)c1ccccc1` [Compound 187], 21 µM.
As for `O=C(Nc1nnc(CCCCc2nnc(NC(=O)C(CO)c3cccs3)s2)s1)C(CO)c1cccs1` (centres unmarked) [Compound 190], the IC50 is 0.49 µM.
Consider `CC(C)(C)OC(=O)Nc1ccc(CC(=O)Nc2nnc(CCCCc3nnc(NC(=O)Cc4ccc(NC(=O)OC(C)(C)C)cc4)s3)s2)cc1` [Compound 192], for which the concentration for half-maximal inhibition (IC50) turned out to be 0.03 µM.
Turning to `Nc1ccc(CC(=O)Nc2nnc(CCSCCc3nnc(NC(=O)Cc4ccc(N)cc4)s3)s2)cc1` [Compound 195], the concentration for half-maximal inhibition (IC50) was 1.3 µM.
The same measure for `Nc1ccc(CC(=O)Nc2nnc(CCCCc3nnc(NC(=O)Cc4ccc(N)cc4)s3)s2)cc1` [Compound 196]: 0.61 µM; for `NS(=O)(=O)c1ccc(CC(=O)Nc2nnc(CCCCc3nnc(NC(=O)Cc4ccc(S(N)(=O)=O)cc4)s3)s2)cc1` [Compound 198]: > 50 µM.
Regarding `O=C(Cc1ccccc1)Nc1nnc(CCSCc2nnc(NC(=O)Cc3ccccc3)s2)s1` [Compound 199], the IC50 stood at 0.17 µM.
For `COCCOC(C(=O)Nc1nnc(CCCCc2nnc(NC(=O)C(OCCOC)c3ccccc3)s2)s1)c1ccccc1` (centres unmarked) [Compound 203], the IC50 was determined as 1.7 µM.
As to `COCC(C(=O)Nc1nnc(CCSCCc2nnc(NC(=O)C(COC)c3ccccc3)s2)s1)c1ccccc1` (centres unmarked) [Compound 204], the IC50 was found to be 2.4 µM.
The same measure for `O=C(Cc1ccccc1CO)Nc1nnc(CCCCc2nnc(NC(=O)Cc3ccccc3CO)s2)s1` [Compound 208]: 9 µM.
Under `C=CCC(C(=O)Nc1nnc(CCCCc2nnc(NC(=O)C(CC=C)c3ccccc3)s2)s1)c1ccccc1` (centres unmarked) [Compound 209] stands 22 µM.
Turning to `O=C(Nc1nnc(CCCCc2nnc(NC(=O)[C@@H](O)c3ccccc3Cl)s2)s1)[C@@H](O)c1ccccc1Cl` [Compound 210], the IC50 was 0.42 µM.
As to `O=C(Nc1nnc(CCCCc2nnc(NC(=O)C(O)c3cccc(F)c3F)s2)s1)C(O)c1cccc(F)c1F` (centres unmarked) [Compound 211], the IC50 turned out to be 1 µM.
With `O=C(Cn1ccc2ccccc21)Nc1nnc(CCSCCc2nnc(NC(=O)Cn3ccc4ccccc43)s2)s1` [Compound 213], the IC50 stood at 4.4 µM.
For the molecule `NCCC(C(=O)Nc1nnc(CCSCCc2nnc(NC(=O)C(CN)c3ccccc3)s2)s1)c1ccccc1` (centres unmarked) [Compound 214], the IC50 came out at 1.2 µM.
For the molecule `N#Cc1ccc(CC(=O)Nc2nnc(CCSCCc3nnc(NC(=O)Cc4ccc(C#N)cc4)s3)s2)cc1` [Compound 216], the IC50 was > 50 µM.
Consider `NS(=O)(=O)c1ccc(CC(=O)Nc2nnc(CCSCCc3nnc(NC(=O)Cc4ccc(S(N)(=O)=O)cc4)s3)s2)cc1` [Compound 217], for which the IC50 is > 50 µM.
As for `COc1ccccc1CC(=O)Nc1nnc(CCSCCc2nnc(NC(=O)Cc3ccccc3OC)s2)s1` [Compound 219], the concentration for half-maximal inhibition (IC50) amounted to 0.57 µM.
Take `COC(=O)C(C(=O)Nc1nnc(CCCCc2nnc(NC(=O)C(C(=O)OC)c3ccccc3)s2)s1)c1ccccc1` (centres unmarked) [Compound 220]: the IC50 came out at 0.31 µM.
The same measure for `O=C(Nc1nnc(CCCCc2nnc(NC(=O)[C@@H](O)[C@H](O)c3ccccc3)s2)s1)[C@@H](O)[C@H](O)c1ccccc1` [Compound 226]: > 50 µM.
For the molecule `Nc1nnc(CCCCc2nnc(NC(=O)C(CO)c3ccccc3)s2)s1` (centres unmarked) [Compound 227], the IC50 amounted to 3.3 µM.
In the case of `O=C(CCN1CCOCC1)OCC(C(=O)Nc1nnc(CCCCc2nnc(NC(=O)C(CO)c3ccccc3)s2)s1)c1ccccc1` (centres unmarked) [Compound 228, 3-((5-{4-[5-(3-hydroxy-2-phenylpropanamido)-1,3,4-thiadiazol-2-yl]butyl}-1,3,4-thiadiazol-2-yl)amino)-3-oxo-2-phenylpropyl 3-morpholinopropanoate], the IC50 came out at 0.13 µM.

Usually IC50 stands for the concentration at which inhibition is half-maximal.
